We go through 11 molecules from patent US9669034B2, “4-aryl-N-phenyl-1,3,5-triazin-2-amines containing a sulfoximine group” (BAYER INTELLECTUAL PROPERTY GMBH, priority 2011, dated 2017).

The target in one experiment is CDK2/CycE (Homo sapiens (Human), UniProt P24941). The experiment is described as follows: CDK2/CycE kinase assay (TR-FRET). It counts as biochemical. As to conditions: Method 2. The source says: 2. CDK2/CycE Kinase Assay:
CDK2/CycE—inhibitory activity of compounds of the present invention was quantified employing the CDK2/CycE TR-FRET assay as described in the following paragraphs:
Recombinant fusion proteins of GST and human CDK2 and of GST and human CycE, expressed in insect cells (Sf9) and purified by Glutathion-Sepharose affinity chromatography, were purchased from ProQinase GmbH (Freiburg, Germany). As substrate for the kinase reaction biotinylated peptide biotin-Ttds-[…]

In the next experiment the target is CDK9/CycT1 (Homo sapiens (Human), UniProt P50750). The experiment in a line: CDK9/CycT1 kinase assay (TR-FRET). It counts as biochemical. Particulars: Method 1. The source says:
1. CDK9/CycT1 Kinase Assay:
CDK9/CycT1—inhibitory activity of compounds of the present invention was quantified employing the CDK9/CycT1 TR-FRET assay as described in the following paragraphs:
Recombinant full-length His-tagged human CDK9 and CycT1, expressed in insect cells and purified by Ni-NTA affinity chromatography, were purchased from Invitrogen (Cat. No PV4131). As substrate for the kinase reaction biotinylated peptide biotin-Ttds-[…]
A general note: Time-resolved FRET reads energy transfer from a long-lived donor to a nearby acceptor.

CDK9/CycT1, sequence (P50750 whole entry): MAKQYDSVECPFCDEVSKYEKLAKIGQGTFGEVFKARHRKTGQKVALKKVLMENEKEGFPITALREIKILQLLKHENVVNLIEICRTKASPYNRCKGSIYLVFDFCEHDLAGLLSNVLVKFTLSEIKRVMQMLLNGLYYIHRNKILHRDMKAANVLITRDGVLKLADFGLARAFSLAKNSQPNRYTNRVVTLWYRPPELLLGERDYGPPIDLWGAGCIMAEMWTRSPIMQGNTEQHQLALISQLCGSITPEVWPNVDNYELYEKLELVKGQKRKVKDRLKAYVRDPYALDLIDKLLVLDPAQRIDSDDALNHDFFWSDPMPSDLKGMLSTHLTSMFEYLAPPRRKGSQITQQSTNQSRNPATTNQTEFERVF
CDK9/CycT1, sequence (O60563 whole entry partner): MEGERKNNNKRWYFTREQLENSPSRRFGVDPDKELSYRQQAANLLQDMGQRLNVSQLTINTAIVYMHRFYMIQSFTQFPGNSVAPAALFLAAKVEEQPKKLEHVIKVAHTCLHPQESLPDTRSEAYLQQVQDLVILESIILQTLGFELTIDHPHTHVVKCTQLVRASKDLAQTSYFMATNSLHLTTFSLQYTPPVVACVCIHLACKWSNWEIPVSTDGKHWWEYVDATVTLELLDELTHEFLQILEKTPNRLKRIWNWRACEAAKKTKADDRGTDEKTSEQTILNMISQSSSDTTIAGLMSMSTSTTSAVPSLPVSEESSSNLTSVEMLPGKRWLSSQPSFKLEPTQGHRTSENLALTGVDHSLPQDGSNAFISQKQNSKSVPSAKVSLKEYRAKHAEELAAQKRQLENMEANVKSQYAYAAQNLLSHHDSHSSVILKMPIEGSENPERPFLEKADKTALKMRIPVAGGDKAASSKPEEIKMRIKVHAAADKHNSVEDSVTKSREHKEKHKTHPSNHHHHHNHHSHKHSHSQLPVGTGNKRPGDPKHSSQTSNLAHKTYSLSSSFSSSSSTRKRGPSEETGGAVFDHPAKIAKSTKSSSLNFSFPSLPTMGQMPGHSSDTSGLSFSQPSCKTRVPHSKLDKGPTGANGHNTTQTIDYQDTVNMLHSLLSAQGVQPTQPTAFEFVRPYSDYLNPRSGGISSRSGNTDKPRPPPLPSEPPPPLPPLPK

A word on the IC50: it is the concentration needed to halve the response being measured. `CCOC(=O)N=S(C)(=O)Cc1cccc(Nc2ncnc(-c3ccc(F)cc3OC)n2)c1` (racemic) [Example 1, (rac)-Ethyl [(3-{[4-(4-fluoro-2-methoxyphenyl)-1,3,5-triazin-2-yl]amino}benzyl)(methyl)oxido-λ^6-sulfanylidene]carbamate]: on CDK2/CycE, half-maximal inhibition (IC50) was put at 2200 nM.
For `CS(=N)(=O)Cc1cccc(Nc2ncnc(-c3ccc(F)cc3OCc3ccccc3)n2)c1` (racemic) [Example 6, (rac)-4-[2-(Benzyloxy)-4-fluorophenyl]-N-{3-[(S-methylsulfonimidoyl)methyl]phenyl}-1,3,5-triazin-2-amine], the results for the IC50 against CDK2/CycE and against CDK9/CycT1 were 220 nM and 3 nM, respectively.
In the case of `CCOC(=O)N=S(C)(=O)Cc1cccc(Nc2ncnc(-c3ccc(Cl)cc3OC)n2)c1` (racemic) [Example 11, (rac)-Ethyl [(3-{[4-(4-chloro-2-methoxyphenyl)-1,3,5-triazin-2-yl]amino}benzyl)(methyl)oxido-λ^6-sulfanylidene]carbamate], the IC50 on CDK2/CycE stood at 5500 nM; on CDK9/CycT1, 23 nM.
The like results for `COc1cc(Cl)ccc1-c1ncnc(Nc2cccc(CS(C)(=N)=O)c2)n1` (racemic) [Example 12, (rac) 4-(4-Chloro-2-methoxyphenyl)-N-{3-[(S-methylsulfonimidoyl)methyl]phenyl}-1,3,5-triazin-2-amine] were, in that order, 6800 nM and 74 nM.
Consider `CCOC(=O)N=S(C)(=O)Cc1cccc(Nc2ncnc(-c3cccc4c3OC(F)(F)O4)n2)c1` (racemic) [Example 18, (rac)-Ethyl [(3-{[4-(2,2-difluoro-1,3-benzodioxol-4-yl)-1,3,5-triazin-2-yl]amino}benzyl)(methyl)oxido-λ^6-sulfanylidene]carbamate], for which the IC50 against CDK2/CycE stood at 3900 nM; at CDK9/CycT1, 33 nM.
For `CS(=N)(=O)Cc1cccc(Nc2ncnc(-c3cccc4c3OC(F)(F)O4)n2)c1` (racemic) [Example 19, (rac)-4-(2,2-Difluoro-1,3-benzodioxol-4-yl)-N-{3-[(S-methylsulfonimidoyl)methyl]phenyl}-1,3,5-triazin-2-amine], the 50% inhibitory concentration (IC50) at CDK2/CycE is 2100 nM; against CDK9/CycT1, 59 nM.
For the molecule `CCOC(=O)N=S(C)(=O)Cc1cccc(Nc2ncnc(-c3cc(F)ccc3OC)n2)c1` (racemic) [Example 20, (rac)-Ethyl [(3-{[4-(5-fluoro-2-methoxyphenyl)-1,3,5-triazin-2-yl]amino}benzyl)(methyl)oxido-λ^6-sulfanylidene]carbamate], the 50% inhibitory concentration (IC50) against CDK2/CycE worked out at 2000 nM; against CDK9/CycT1, 22 nM.
Consider `COc1ccc(F)cc1-c1ncnc(Nc2cccc(CS(C)(=N)=O)c2)n1` (racemic) [Example 21, (rac)-4-(5-Fluoro-2-methoxyphenyl)-N-{3-[(S-methylsulfonimidoyl)methyl]phenyl}-1,3,5-triazin-2-amine], for which the results for the IC50 against CDK2/CycE and on CDK9/CycT1 were 3500 nM and 56 nM, respectively.
`COc1cc(F)ccc1-c1ncnc(Nc2cc(F)c(F)c(CS(C)(=N)=O)c2)n1` (racemic) [Example 106, (rac)-N-{3,4-Difluoro-5-[(S-methylsulfonimidoyl)methyl]phenyl}-4-(4-fluoro-2-methoxyphenyl)-1,3,5-triazin-2-amine] returned an IC50 on CDK2/CycE of 400 nM.
At CDK2/CycE, `COc1cc(F)ccc1-c1ncnc(Nc2cc(F)cc(CS(C)(=N)=O)c2)n1` (single isomer, unassigned) [Example 53, 4-(4-Fluoro-2-methoxyphenyl)-N-{3-fluoro-5-[(S-methylsulfonimidoyl)methyl]phenyl}-1,3,5-triazin-2-amine] gave an IC50 of 540 nM.
In turn, `CC(Oc1cc(F)ccc1-c1ncnc(Nc2cccc(CS(C)(=N)=O)c2)n1)C1CCCC1` (stereo not drawn) [Example 63, 4-[2-(1-cyclopentylethoxy)-4-fluorophenyl]-N-{3-[(S-methylsulfonimidoyl)methyl]phenyl}-1,3,5-triazin-2-amine] had an IC50 against CDK9/CycT1 of 99 nM.
